Source: US6838415B1, “Substituted benzoylisoxazoles and the use thereof as herbicides” (Bayer Aktiengesellschaft, priority 1999, dated 2005)

Tests used:
[1] = logP by HPLC on reverse-phase column (C 18), acidic range; assay type: physicochemical; details: for logP a): acidic range: 0.1% aqueous phosphoric acid/acetonitrile gradient, HPLC C 18, 43° C.; for logP: HPLC reverse-phase column (C 18), 43° C., acidic range: 0.1% aqueous phosphoric acid, acetonitrile; data labelled a)
Protocol: (§1) The logP values given in Table 1 were determined in accordance with EE Directive 79/831 Annex V.A8 by HPLC (High Performance Liquid Chromatography) using a reverse-phase column (C 18). Temperature: 43° C. (a) Mobile phases for the determination in the acidic range: 0.1% aqueous phosphoric acid, acetonitrile; linear gradient from 10% acetonitrile to 90% acetonitrile—the corresponding data in Table 1 are labelled ^a). Calibration was carried out using unbranched alkan-2-ones (with from 3 to 16 carbon atoms) whose logP values are known (determination of the logP values by the retention times using linear interpolation between two successive alkanones). The logP values given in Table 3 were determined in accordance with EEC Directive 79/831 Annex V.A8 by HPLC (High Performance Liquid Chromatography) using a reverse-phase column (C 18). Temperature: 43° C. (a) Mobile phases for the determination in the acidic range: 0.1% aqueous phosphoric acid, acetonitrile; linear gradient from 10% acetonitrile to 90% acetonitrile—the corresponding data in Table 3 are labelled ^a). Calibration was carried out using unbranched alkan-2-ones (with from 3 to 16 carbon atoms) whose logP values are known (determination of the logP values by the retention times using linear interpolation between two successive alkanones).

[2] = system: crop plants, such as, for example, wheat; assay: Post-emergence test, tolerance by crop plants; assay type: in vivo; details: rated after three weeks
Protocol: (§2) Post-emergence Test [table] To produce a suitable preparation of active compound, 1 part by weight of active compound is mixed with the stated amount of solvent, the stated amount of emulsifier is added and the concentrate is diluted with water to the desired concentration. Test plants which have a height of 5-15 cm are sprayed with the preparation of active compound such that the particular amounts of active compound desired are applied per unit area. The concentration of the spray liquor is chosen so that the particular amounts of active compound desired are applied in 1000 l of water/ha After three weeks, the degree of damage to the plants is rated in % damage in comparison to the development of the untreated control. The figures denote: [table]

[3] = system: weeds; assay: Pre-emergence test, action against weeds; assay type: in vivo; details: soil sprayed about 24 hours after sowing, rated after three weeks
Protocol: (§3) Pre-emergence Test [table] To produce a suitable preparation of active compound, 1 part by weight of active compound is mixed with the stated amount of solvent, the stated amount of emulsifier is added and the concentrate is diluted with water to the desired concentration. Seeds of the test plants are sown in normal soil. After about 24 hours, the soil is sprayed with the preparation of active compound such that the particular amount of active compound desired is applied per unit area. The concentration of the spray liquor is chosen so that the particular amount of active compound desired is applied in 1000 liters of water per hectare. After three weeks, the degree of damage to the plants is rated in % damage in comparison to the development of the untreated control. The figures denote: [table]

[4] = system: crop plants, such as, for example, maize; assay: Pre-emergence test, tolerance by crop plants; assay type: in vivo; details: rated after three weeks
Protocol: as §3

[5] = system: weeds; assay: Post-emergence test, activity against weeds; assay type: in vivo; details: test plants 5-15 cm sprayed, rated after three weeks
Protocol: as §2

[6] = logP by HPLC on reverse-phase column (C 18), neutral range; assay type: physicochemical; details: neutral range: 0.01 molar aqueous phosphate buffer/acetonitrile gradient, HPLC C 18, 43° C.
Protocol: as §1, with “(b)” for “(a)”, “neutral” for “acidic”, “0.01 molar” for “0.1%”, “phosphate buffer solution,” for “phosphoric acid,”, “^b).” for “^a).”

Row | SMILES | logP a) [1] | logP [1] | further results
1 | CSc1nn(Cc2cc(C(F)(F)F)ccc2C(=O)c2cnoc2C2CC2)c(=O)n1C [Example 2, (5-cyclopropyl-isoxazol-4-yl)-[2-(4-methyl-3-methylthio-5-oxo-4,5-dihydro-[1,2,4]-triazol-1-yl-methyl)-4-trifluoromethyl-phenyl]-methanone] | – | – | chromatographic logP ([1]; reverse-phase HPLC column (C 18), pH=2.3, read-out: logP (determined at pH=2.3)): 2.94
2 | CCOc1nn(Cc2cc(Br)ccc2C(=O)c2c(C(=O)OC)noc2C2CC2)c(=O)n1C [Example 3] | (IA) logP = 3.15^a) | – | tolerance by crop plants [2]: tolerated well; action against weeds (degree of damage) [3]: strong action against weeds; tolerance by crop plants [4]: tolerated well; activity against weeds (degree of damage) [5]: very strong activity against weeds
3 | CCOn1c(CC)nn(Cc2cc(Br)ccc2C(=O)c2c(C(=O)OC)noc2C2CC2)c1=O [Example 4] | – | – | logP b) [6]: (IA) logP = 3.36^b); tolerance by crop plants [2]: tolerated well; action against weeds (degree of damage) [3]: strong action against weeds; tolerance by crop plants [4]: tolerated well; activity against weeds (degree of damage) [5]: very strong activity against weeds
4 | COC(=O)c1noc(C2CC2)c1C(=O)c1ccc(Br)cc1Cn1nc(C(F)(F)F)n(C)c1=O [Example 5] | (IA) logP = 3.50^a) | – | –
5 | CCOc1nn(Cc2cc(C(F)(F)F)ccc2C(=O)c2c(C(=O)OC)noc2C2CC2)c(=O)n1C [Example 6] | (IA) logP = 3.32^a) | – | –
6 | COC(=O)c1noc(C2CC2)c1C(=O)c1ccc(C(F)(F)F)cc1Cn1nc(SC)n(C)c1=O [Example 7] | (IA) logP = 3.22^a) | – | –
7 | CN1CCN(Cc2c(Cl)ccc(C(=O)c3cnoc3C3CC3)c2Cl)C1=O [ID-1] | logP = 2.48^a) | – | –
8 | COc1c(C(=O)c2cnoc2C2CC2)ccc(Cl)c1CN1CCN(C)C1=O [ID-2] | logP = 2.46^a) | – | –
9 | CCOC(=O)c1ccc(C(F)(F)F)cc1Cn1nc(OC)n(C2CC2)c1=O [VII-91] | – | logP = 3.08^a) | –
10 | COC(=O)c1ccc(C(F)(F)F)cc1Cn1c(=O)oc2ccccc21 [VII-121] | – | logP = 3.37^a) | –
11 | COC(=O)c1ccc(C(F)(F)F)cc1CN1C(=O)c2ccccc2S1(=O)=O [VII-122] | – | logP = 3.29^a) | –
12 | COC(=O)c1ccc(C(F)(F)F)cc1Cn1nnc2ccccc2c1=O [VII-123] | – | logP = 3.26^a) | –
